The source made the active and inactive calls.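 How the source made its calls: active means EC50 no more than a set limit of log units above the highest dose; inactive means the rest.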
target: S. pyogenes SKKanGAS, kanamycin survival, BacTiterGlo, 6 h; assay: SKKanGAS survival reduction under kanamycin, dose response, streptokinase promoter inhibitor project, SKKanGAS strain, luminescence, dose confirmation (AID 1902);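 further: lower survival reflects blocked streptokinase promoter driving kanamycin resistance gene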

| SMILES | EC50 |
| --- | --- |
| Cc1ccc(-c2csc3ncnc(NS(=O)(=O)c4ccc(Cl)cc4)c23)cc1 | 6.82 µM |
| Cc1ccc(O)c(C2=NNC(c3ccc(Cl)cc3)C2)c1 (centres undefined) | 7.44 µM |
| C/C(N)=C(/C#N)C(=O)CSc1nc2scc(-c3ccccc3)c2c(=O)n1C | 1.62 µM |
| CN1CCN(C(=O)C(=O)c2cn(CC(=O)N3CCCC3)c3ccccc23)CC1 | > 15 µM (inactive) |
| Cc1noc(C)c1CSc1nc2ccccc2nc1NS(=O)(=O)c1ccc(Cl)cc1 | 3.13 µM |
| Cc1c(C(=O)Nc2ccc(Oc3ccccc3)cc2)sc2nc3n(c(=O)c12)CCC3 | 6.21 µM |
| CCCC(NC(=S)NCC1CCCO1)C12CC3CC(CC(C3)C1)C2 (centres undefined) | 5.79 µM |
| CC[C@@H](C)[C@H](CNC)NC[C@@H](Cc1cccc2ccccc12)NCCc1cccc(C(F)(F)F)c1 | 2.44 µM |
| CC/C(=C/c1ccccc1)c1cccc2[nH]c3c(OC)cccc3c12 | 2.49 µM |
| COc1ccccc1NC(=O)Nc1nc(CC(=O)Nc2cc(F)ccc2F)cs1 | 8.85 µM |
| Oc1[nH]c2ccccc2c1N=NC(=S)N1CCOCC1 | 0.273 µM |
| CCCCc1c(C)nn(-c2nnc3c4ccccc4n(CC)c3n2)c1C | 1.84 µM |
| O=C(O)c1ccccc1-c1ccccc1C(=O)Nc1ccc(-c2nc3cc(Cl)ccc3o2)cc1 | 5.3 µM |
| NC(=O)NC(=O)CSc1nc2cc([N+](=O)[O-])ccc2n1-c1cccc(C(F)(F)F)c1 | 0.256 µM |
| CCc1nc(N)nc(N)c1-c1ccc(Cl)cc1 | 3.99 µM |
| CCCCN(CC)S(=O)(=O)c1ccc(C(=O)Nc2nnc(-c3ccccc3Cl)o2)cc1 | 0.226 µM |
| CCOC(=O)c1ccc(Oc2cn[nH]c2-c2ccc(OCC(=O)NN)cc2O)cc1 | 0.357 µM |
| CC(C)(C)c1cc(NCc2ccccn2)n2ncc(-c3ccccc3)c2n1 | 0.171 µM |
| CC(C)OC(=O)c1c(NS(=O)(=O)c2ccccc2)sc2c1CCCC2 | 3.88 µM |
| COC(=O)c1sc(N2C(=O)C(O)=C(C(=O)c3ccc(C)o3)C2c2ccc([N+](=O)[O-])cc2)nc1C (centres undefined) | 4.1 µM |
| Cc1ccc(Nc2c(-c3ccccn3)nc3cccc(C)n23)cc1 | 0.322 µM |
| O=S(=O)(Nc1cccc2cccnc12)c1ccccc1 | 4.39 µM |
| CCCCCCn1c(=O)c(C(=O)Nc2cnccn2)c(O)c2ccccc21 | 2.98 µM |
| Cc1ccc(S(=O)(=O)CNC(=S)c2ccc3ccccc3c2)cc1 | 4.18 µM |
| Oc1ccc(CN2CCc3ccccc3C2)c2cccnc12 | 4.09 µM |
| Cc1cnc(NC(=O)c2cc3c(C)nn(-c4ccccc4)c3s2)s1 | 0.831 µM |
| Clc1cc(CSc2ccccc2)nc(-c2ccccc2)n1 | 8.95 µM |

| SMILES | EC50 |
| --- | --- |
| Nc1nc(CN2CCN(c3ccccc3)CC2)nc(N2CCCc3ccccc32)n1 | 0.879 µM |
| COc1cc(/C=N/Nc2nc(Nc3ccc(C)cc3)nc(-n3nc(C)cc3C)n2)cc(OC)c1OC | 0.171 µM |
| O=C(CNC(=O)c1ccccc1Br)N/N=C\c1cc([N+](=O)[O-])cc(Br)c1O | 8.11 µM |
| Cc1cccc(OC(=O)c2sc3ncn(C)c(=O)c3c2C)c1 | 4.09 µM |
| O=C(N/N=C/c1cc([N+](=O)[O-])ccc1O)c1cccc(N2CCCC2=O)c1 | 1.21 µM |
| c1ccc(-c2nc(-c3nccc4ccccc34)oc2-c2ccccc2)cc1 | 3.52 µM |
| O=C(N/N=C/c1ccc([N+](=O)[O-])o1)c1cn(-c2ccccc2)nc1-c1ccc(F)cc1 | 1.16 µM |
| CSc1nc2nccc(-c3ccc(-c4ccccc4)cc3)n2n1 | 3.08 µM |
| C#C[C@]1(O)CC[C@H]2[C@@H]3CCc4cc(OC5CCCC5)ccc4[C@H]3CC[C@@]21C | 2.6 µM |
| C/C(=N\NC(=O)c1cc2ccccc2cc1O)c1ccc2c(c1)OCO2 | 2.18 µM |
| O=C(NCc1ccccn1)Nc1ccc(F)c(Cl)c1 | > 15 µM (inactive) |
| Oc1ccc(/C=N/Nc2nc(-c3ccc(Cl)cc3)cc(C(F)(F)F)n2)cc1 | 7.89 µM |
| Cc1cc(C)cc(C(=O)Nc2nc3ccccc3[nH]2)c1 | 6.04 µM |
| CCOc1ccc(Nc2cc(C)nc(-n3nc(C)cc3C)n2)cc1 | 14 µM |
| CNC(=O)c1c(NC(=O)c2ccc(N3C(=O)CCC3=O)cc2)sc2c1CCC(C)C2 (centres undefined) | 15.7 µM |
| N=c1c2c(-c3ccccc3)c(-c3ccccc3)oc2ncn1Cc1ccco1 | 3.27 µM |
| Oc1c(Br)cc(Br)cc1/C=N/Nc1ccc(Cl)nn1 | 0.481 µM |
| C=CCSc1nc2ccccc2c(=O)n1Cc1ccccc1 | 15.3 µM |
| FC(F)(F)c1cccc(NC(=S)NNC(=S)Nc2ccc(Cl)cc2)c1 | 4.81 µM |
| Cc1cc2nc(N3C(=O)CNC3=S)sc2cc1C | 2.21 µM |
| Cc1ccc(F)c(NC(=O)/C(C#N)=C(\O)c2ccc(C(C)(C)C)cc2)c1 | 6.33 µM |
| O=C(c1ccccc1Cl)N1CCN(S(=O)(=O)c2cccs2)CC1 | > 15 µM (inactive) |
| S=C(NCC1CCCCC1)Nc1ccc(Oc2ccccc2)cc1 | 11 µM |
| OC(COc1cccc2ccccc12)CN1CCN(c2ccc(Cl)cc2)CC1 (centres undefined) | 15.4 µM |
| NC(N)=N/N=C/c1ccc(OCc2ccccc2)c(OCc2ccccc2)c1 | 6.82 µM |
| Cc1nn(-c2ccccc2)c(Cl)c1C1C(C#N)=C(N)Oc2c1c(=O)oc1ccccc21 (centres undefined) | 0.112 µM |
| Cn1cc(C(=O)c2ccc(Cl)cc2Cl)cc1C(=O)N/N=C(\N)COc1ccc(Cl)cc1Cl | 1.72 µM |

| SMILES | EC50 |
| --- | --- |
| CCOC(=O)/C(=N/Nc1ccccc1)c1csc(Nc2ccccc2)n1 | 3.22 µM |
| CN=C(Nc1cc(Cl)ccc1Cl)SC1CC(=O)N(c2ccc(C(=O)OC)cc2)C1=O (centres undefined) | 7.4 µM |
| O=C1CCSc2ccc(Cl)cc2N1Cc1ccc(Cl)cc1 | 3.93 µM |
| O=C1/C(=N\S(=O)(=O)c2cccs2)C([n+]2cccc(Cc3ccccc3)c2)=C([O-])c2ccccc21 | 1.68 µM |
| Nc1nonc1-n1nnc(C(=O)N/N=C/c2cc(Br)ccc2O)c1CNc1ccccc1 | 0.394 µM |
| O=c1c2ccccc2nc(COc2ccccc2)n1/N=C/c1cc([N+](=O)[O-])ccc1O | 1.73 µM |
| Nc1ccc(-c2nc3nc(N)nc(N)c3nc2-c2ccc(N)cc2)cc1 | 3.77 µM |
| O=C(CNc1cccc2ccccc12)N/N=C/c1ccc([N+](=O)[O-])o1 | 1.12 µM |
| Cc1c(C(=O)N/N=C/c2ccc(Cl)cc2)[nH]c2ccc(Cl)cc12 | 2.71 µM |
| CC1(C)N=C(N)N=C(N)N1c1ccccc1 | 0.325 µM |
| Cc1cccc(CCNC(=O)CC2C(=O)NCCN2Cc2ccccc2C)n1 (centres undefined) | > 15 µM (inactive) |
| CC12CCC(C(=O)Nc3cccc(Cl)c3Cl)([C@H](Br)C1=O)C2(C)C (some centres undefined) | > 15 µM (inactive) |
| CC(C)COC(=O)c1cccc2c1-c1ccccc1/C2=N\O | 4.99 µM |
| CC(=O)c1ccc(NC(=S)Nc2ccc(Br)c(Cl)c2)cc1 | 6.2 µM |
| Oc1c(Cl)cc(Cl)c(Cl)c1Cc1c(O)c(Cl)cc(Cl)c1Cl | 0.202 µM |
| CCN(CC)c1ccc(NC(=O)c2c(C)noc2C)cc1 | > 15 µM (inactive) |
| CCN1/C(=C\C=C\C2=[N+](CC)c3ccccc3C2(C)C)C(C)(C)c2ccccc21 | 7.34 µM |
| CCOC(=O)c1cnn(-c2nc(-c3cccc(F)c3)cs2)c1C(F)(F)F | 12.3 µM |
| CC(C)(C)c1ccc(O)c(N=Cc2c(O)ccc3ccccc23)c1 | 5.12 µM |
| S=c1nc(SCc2ccccc2)[nH]c2ccccc12 | 3.19 µM |
| O=C(NNc1c2ccccc2nc2ccccc12)c1ccc(O)cc1O | 3.15 µM |
| COC(=O)c1cc(C(=O)Nc2nc3ccccc3[nH]2)cc([N+](=O)[O-])c1 | 8.85 µM |
| COc1ccccc1-c1nnc(Nc2nc3c(OC)cccc3s2)o1 | 0.803 µM |
| CCc1nnc(NC(=O)c2cccc(C(=O)Nc3nnc(CC)s3)n2)s1 | 0.961 µM |
| CCC1CCCCN1S(=O)(=O)c1ccc(C(=O)Nc2nnc(C3=COCCO3)o2)cc1 (centres undefined) | 5.72 µM |

From PubChem BioAssay AID1902 (Broad Institute, 2009)
